In US11850305B2 (GLAXOSMITHKLINE BIOLOGICALS SA, priority 2010, dated 2023):
Where two headings read alike, the source gives them in different places.

Assays:
[1] = pKa measurement of lipid with TNS fluorescent probe; type: physicochemical
Text: This is done with all eight buffers.

BHK cells = test: BHK expression; type: cell-based; details: liposomes incubated with BHK cells overnight
Method: Liposomes with different lipids were incubated with BHK cells overnight and assessed for protein expression potency. From a baseline with RV05 lipid expression could be increased 18× by adding 10% 1,2-diphytanoyl-sn-glycero-3-phosphoethanolamine (DPyPE) to the liposome, 10× by adding 10% 18:2 (cis) phosphatidylcholine, and 900× by instead using RV01.

RSV F protein = test: Total IgG titers against F protein after replicon delivery in liposomes with alternative cationic lipids; type: in vivo; details: cationic lipid of RV01 liposomes replaced; 2wp1 and 2wp2
Text: These liposomes were also used to deliver a replicon encoding full-length RSV F protein. Total IgG titers against F protein two weeks after the first dose (2wp1) are plotted against pKa in FIG. 16. The best results are seen where the pKa is where the cationic lipid has a pKa between 5.7-5.9, but pKa alone is not enough to guarantee a high titer e.g. the lipid must still support liposome formation.
The cationic lipid in RV01 liposomes (DLinDMA) was replaced by RV16, RV17, RV18 or RV19.

[2] = probe 6-(p-toluidino)-2-naphthalenesulfonic acid (TNS), lipid alone, TNS fluorescence method, read-out: pKa of cationic lipid

SMILES	pKa [1, 2]	also measured
CCCCC/C=C\C/C=C\CCCCCCCCNC(=O)C(CN(C)C)NC(=O)CCCCCCC/C=C\C/C=C\CCCCC (centres unmarked)	6.1	
CCCCC/C=C\C/C=C\CCCCCCCCOCC(CN(C)C)OCCCCCCCC/C=C\C/C=C\CCCCC (centres unmarked) [RV01, 1,2-dilinoleyloxy-N,N-dimethyl-3-aminopropane, reference compound]	~5.8	increase of protein expression from a baseline with RV05 lipid (BHK cells): 900 ×
CCCCCCCC/C=C\CCCCCCCC(=O)N[C@@H](CCNC(=N)N)C(=O)NCCCCCCCCCCCCCCCC [RV02]	> 9	
CCCCC/C=C\C/C=C\CCCCCCCCOCC(CN1CCC(C)(C)C1)OCCOCCO[C@H]1CC[C@@]2(C)C(=CC[C@H]3[C@@H]4CC[C@H]([C@H](C)CCCC(C)C)[C@@]4(C)CC[C@@H]32)C1 (some centres unmarked) [RV05]		pKa [1]: ~5.8
CCCCC/C=C\C/C=C\CCCCCCCCOCC(CN1CCCC1C)OCCOCCOCCNC(=O)O[C@H]1CC[C@@]2(C)C(=CC[C@H]3[C@@H]4CC[C@H]([C@H](C)CCCC(C)C)[C@@]4(C)CC[C@@H]32)C1 (some centres unmarked) [RV12]		pKa [1]: 7
CCCCCCCC/C=C\CCCCCCCCNC(=O)C(CN(C)C)NC(=O)CCCCCCC/C=C\CCCCCCCC (centres unmarked) [RV17]	6.1	
CCCCCCCC/C=C\CCCCCCCCOCC(C[N+](C)(C)C)OCCCCCCCC/C=C\CCCCCCCC.[Cl-] (centres unmarked) [RV19]		Total IgG titers (FIG. 17) (RSV F protein): lowest results
